Measurements from PMC10144346, “Novel PD-L1-Targeted Phenyl-Pyrazolone Derivatives with Antioxidant Properties” (Molecules, 2023).

Legend:
CTLL-2 cells = experiment: CTLL-2 cell proliferation reactivation assay (CyQUANT); type: cell-based; settings: for IC50: CTLL-2 cells with rhPD-L1 chimera, 72 h, n = 3
Text: Next, we investigated the capacity of the compound to reactivate proliferation of CTLL-2 cells. These cytotoxic T cells expressing […] are maintained in a dormant state when they are cultivated in the presence of recombinant hPD-L1; their proliferation, monitored by flow-cytometry (using the CyQuant cell proliferation test), is reactivated when they are exposed to a PD-L1 inhibitor, thus mimicking a reactivation of the immune system. […] The replacement of the Me substituent of compound 2 with an ethyl group abolished the capacity of the product to promote CTLL-2 cell proliferation. The same result was obtained with a compound bearing a […] chain instead of the ethyl chain (not shown).
The CyQUANT cell proliferation kit (Thermofischer, Waltham, MA, USA) was used to evaluate the growth of the CTLL-2 cell line (ATCC). Cells were prepared by growing them in the presence or absence of rhPD-L1 chimera (R&D) plus the test compound, and then transferring them to microplates for assay according to manufacturer’s instructions (Molecular Probes C35011). A cell-based standard curve was first established, with the amount of fluorescence correlated to the quantity of cells in the wells. Cells were incubated with increasing concentrations of compounds, over a period 72 h. Positive (nivolumab) and negative (no rhPD-L1 Fc chimera) controls were performed to calibrate the assay. IC50 were determined for the restoration of proliferation by global curve fitting with Graphpad. Experiments were repeated three times and IC50 values averaged.

[1] = target: T1, recombinant human PD-L1 protein (rhPD-L1) (Homo sapiens, UniProt Q9NZQ7); set-up: method as in printed; settings: background statement of the introduction, ref not given; cited from earlier work
T1 construct: purchased R&D Systems 9049-B7-100
T1 sequence (Q9NZQ7 19-239 limits assumed): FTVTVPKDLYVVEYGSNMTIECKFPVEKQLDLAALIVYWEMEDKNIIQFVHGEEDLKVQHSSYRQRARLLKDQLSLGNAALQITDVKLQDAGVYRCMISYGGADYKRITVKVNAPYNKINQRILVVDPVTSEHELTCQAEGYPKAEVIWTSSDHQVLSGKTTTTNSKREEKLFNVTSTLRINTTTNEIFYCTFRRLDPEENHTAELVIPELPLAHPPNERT

[2] = EPR spin-trapping assay with DMPO under Fenton conditions; settings: for DMPO kr / DMPO kr/ka: DMPO 1 mM; for DMPO kr: methanol, reaction with •OCH3; for DMPO kr/ka: ka (DMPO-•OH) = 4.3 × 10^9 M^−1 s^−1
Procedure: (§1) We used two electron paramagnetic resonance (EPR)-based assays to compare the antioxidant potency of the compounds. The first assay was a free radical scavenging test with 1,1-diphenyl-2-picrylhydrazyl (DPPH) to monitor the decay in the EPR signal intensity in the presence of the diamagnetic hydrazine compound. The intensity of the typical EPR spectrum of DPPH (100 μM) decreases in the presence of increasing concentration of the test compounds (Figure 6). The attenuation of the EPR signal reflects the antioxidant effect, clearly visible with each compound. From the EPR data, the concentration of the compound required to reduce the signal intensity by 50% (EC50) was calculated. […] The second assay relies on the use of the spin-trapping agent DMPO (5,5-dimethyl-1-pyrroline N-oxide) to monitor the formation of an oxygen centered radical generated under Fenton conditions (hydrogen peroxide plus ferrous ions). We used methanol as a solvent, thus leading to a monitoring of the methoxy radical DMPO/^•OCH3 characterized with a typical six-line EPR signal with hyperfine coupling constants aN = 13.9 G and aH = 8.3 G (Figure 7). The decrease in the EPR signal was evaluated with the different compounds to compare their relative antioxidant capacity. […] For each compound, we calculated the reaction constants (kr in Table 2). The antioxidant capacity of compounds 4–5 was reduced compared to edaravone (1). Nevertheless, compound 5 maintains a significant activity, with a kr value reduced by a factor 2.6 compared to the reference product 1. […] The value obtained with EDA is consistent with that given in the literature and thus validates our measurements.
(§2) An X-band Brüker Elexsys E500 spectrometer operating at 9.86 GHz was used to perform CW-EPR experiments. CW-EPR spectra were recorded at room temperature with a microwave power of 5.024–10.02 mW and a modulation amplitude of 1–2 G that considers non-saturation conditions. The free radical scavenging molecule DPPH (1,1-diphenyl-2-picrylhydrazyl) and spin trap agent DMPO (5,5-dimethyl-1-pyrroline N-oxide) were used to monitor the antioxidant activity of the test compounds. The solution mixture (50 μL) was filled into a glass capillary, placed in 4 mm quartz EPR tubes for analysis. The inhibition of DPPH (%) was calculated with the equation: I (%) = ((I0 − I)/I0) × 100 where I0 is the area of the EPR spectrum of DPPH (control sample), and I the area of the DPPH spectrum with antioxidant compound. The rate constant for the reaction of antioxidant compounds with ^•OCH3 is expressed by the equation: 1/Ra = 1/Rf + ((Kr [AH])/(ka [DMPO] Rf)) where Rf, and Ra indicate EPR signal area (double integration of EPR signal) of ^•OCH3, DMPO/^•OCH3, respectively. ka and [DMPO] are constants, and a plot of 1/Ra vs. [AH] (concentration of antioxidant compound) gives a straight line with 1/Rf as an intercept and kr/(ka[DMPO]Rf) as the slope. The rate constant for the reaction of ^•OCH3 with antioxidant compounds (kr) is expressed by the equation: kr = (ka [DMPO] × slope)/− intercept.

[3] = EPR DPPH free radical scavenging assay; settings: DPPH 100 µM, compound 2 to 90 µM
Procedure: as §1, §2

[4] = Aldehyde (4-HNE) reactivity by HRMS; settings: 180 min, 37 °C, [M–H]-
Text: Edaravone (1) is a reactive molecule known to form adducts with different aromatic aldehydes, such as formylpterin and vanillin [15, 19]. In aqueous solution, it forms mono- and bis-adducts with the aldehyde compound vanillin [20]. […] Here we have compared the reactivity of compounds 1–5 using another aldehyde with a major biological relevance, 4-hydroxynonenal. 4-HNE is a product of lipid peroxidation implicated in the pathogenesis of diverse human diseases, such as diabetes, aging-related diseases and cancers. […] Edaravone is known to react covalently with 4-HNE to form mono-, bis-, and tris-adducts in solution [25]. We used high-resolution mass spectrometry (HRMS) to monitor the formation of the covalent adducts generated with the phenyl-pyrazolones and 4-HNE after 3 h of incubation at physiological temperature in an aqueous buffer. The formation of mono-, bis-, and tris-adducts was detected unambiguously with each compound (Figure 8). A reaction scheme is represented in Figure 9 for compound 5. In each case, the pyrazolone compound (nucleophile) easily reacted with 4-HNE to generate the different species, each characterized by their corresponding mass (m/z), the ring-double-bond value (rdb, valence values of elements in structure), the signal intensity and the correspondence with the theoretical m/z value (Δppm) (Table 3). The different species can be easily identified, with the isotopic pattern characteristic for the presence of chlorine and carbon atoms (chlorine and carbon cluster isotopes). In all cases, the species formed were identified without any ambiguity from their relative abundances. […] These values were in accordance with the theorical abundances, calculated from the exactive software for the isotopic pattern of the ions from m/z = 489.13606 to m/z = 494.13323.
High resolution mass spectrometry (HRMS) and spectra were recorded with an Exactive Plus mass spectrometer (Thermo Fisher Scientific, San Jose, CA, USA) equipped with a heated electrospray ionisation probe (HESI -II). Each mass analyzer was calibrated with Pierce®ESI positive and negative ion calibration solutions each week (Thermo Fisher Scientific). Optimization of voltages, gas values, and temperatures applied for ion transfer and ionization was performed in negative mode. The tuning parameters were optimized separately with reaction mixture obtained from reaction of nucleophile with the aldehyde. This was completed by infusing first individual solutions of each nucleophile or the aldehyde at 10 pmol/µL. Each reaction mixture was performed during 180 min at 37 °C with the compound at 0.5 mM in phosphate buffer 10 mM, pH = 7.4 and then the reaction mixture was diluted 1/400 in MeOH. The solution was injected with a syringe at a flow rate of 10 µL/min. […]

[5] = target: T2, interaction between PD-L1 and PD-1 (Homo sapiens, UniProt Q9NZQ7); experiment: FRET reporter assay, SHP-2-CFP / PD-1-YFP in CHO-K1 cells activated by rhPD-L1; type: cell-based; settings: CHO-K1 cells co-transfected PD1-SHP2, PD-L1 10 µM, n = 5, read-out: Bioactivity (IC50), block of PD-L1/PD-1 interaction in cells
T2 construct: expressed in transfected cells; host or cells: CHO-K1
T2 sequence (Q9NZQ7 19-239 limits assumed): as above

[6] = target: T1, recombinant human PD-L1 protein (rhPD-L1); experiment: Microscale thermophoresis (MST) binding assay; settings: rhPD-L1, n = 3, 1:1 binding model
[7] = target: T3, PD-L1 dimers (His-labeled PD-L1 titrated with unlabeled His-PD-L1) (Homo sapiens, UniProt Q9NZQ7); experiment: MST dimerization binding assay; settings: test compound 1 µM, labeled His-PD-L1 10 nM
T3 construct: purchased Biotechne 9049-B7-100
T3 sequence (Q9NZQ7 19-239 limits assumed): as above
Text: These observations led us to prioritize compound 5 as a hit compound owing to its potent capacity to bind to PD-L1, to interrupt PD-1/PD-L1 signaling and to reactivate CTLL-2 cell proliferation. Moreover, we selected this compound for an additional reason: its unique capacity to promote dimerization of rhPD-L1. This later property was evidenced using a specific dimerization binding assay which monitors the formation of PD-L1 dimers from a His-labeled PD-L1 protein by MST. The use of a PD-L1 protein with a polyhistidine (6xHis) tag at the C-terminus allows the non-covalent, stable, and selective labeling of the protein with a red fluorescent dye, to facilitate the formation of PD-L1 dimers. […] There is no doubt that this compound is a robust inhibitor of the PD-1/PD-L1 checkpoint.
A labeled His-PD-L1 protein was titrated against an unlabeled His-PD-L1 protein with or without compounds of interest. The test compound (1 µM) and the His-labeled PD-L1 protein (10 nM) are kept constant whereas the unlabeled His-PD-L1 (1 µM) varies with a serial 1:1 ratio of 16 gradients. MST was performed using the same instrument as mentioned above. His-PD-L1 protein (Biotechne # 9049-B7-100) was diluted to 200 nM in commercial PBS-T buffer and was labeled as indicated above. The RED-tris-NTA dye was diluted in PBS-T to 100 nM. The mix was incubated at room temperature in the dark for 30 min. Capillaries were filled individually.

Solubility = type: physicochemical
[8] = Metabolic stability in mouse liver microsomes; type: in vitro ADME
Text: The metabolic stability of the compounds in mice liver microsomes was investigated using liver microsomes from male mice (BD Gentest™) with propranolol as a positive control, as described previously. Mouse plasma CD-1 was used to investigate the plasma stability of the molecules, with enalapril as a positive control, as described recently.

Compound	EC50 [3] [nM]	HRMS intensity of remaining 4-HNE [4]	IC50 [5] [nM]	Kd [6] [nM]	Promotion of PD-L1 dimerization [7]	melting point [°C]	Solubility compared to compound 3 (Solubility)	Microsomal stability compared to compound 3 [8]	IC50 (CTLL-2 cells) [nM]	Binding to PD-L1 [1]	DMPO kr [2]	DMPO kr/ka [2]	Reactivation of CTLL-2 cell proliferation (CTLL-2 cells; CTLL-2 cells with rhPD-L1)	IC50 (CTLL-2 cells; Mus musculus, CTLL-2, 72 h) [nM]	kr value reduced by a factor compared to reference product 1 ([2]; DMPO assay)
COc1nc(OCc2cccc(-c3ccccc3)c2C)ccc1CNCCNC(C)=O [BMS-202, reference compound]	–	–	–	–	–	–	–	–	53 ± 17	–	–	–	–	–	–
CC1=NN(c2ccccc2)C(=O)C1 [Compound 1, edaravone, reference compound]	35800	1.63 × 10^5	–	–	–	–	–	–	–	does not bind to PD-L1	25.9 10^10 M^−1 s^−1	60	–	–	–
CC1=NN(c2ccc(Cl)cc2Cl)C(=O)C1 [Compound 2]	36500	–	–	–	–	–	–	–	–	–	19.3 10^10 M^−1 s^−1	45	–	53 ± 11	–
COc1ccccc1C1=NN(c2ccc(Cl)cc2Cl)C(=O)C1 [Compound 3, 1-(2,4-Dichlorophenyl)-3-(2-methoxyphenyl)-1H-pyrazol-5(4H)-one]	34000	1.92 × 10^5	–	–	inactive	188	–	–	79 ± 7	–	–	–	–	70	–
Oc1cc(-c2ccccc2F)nn1-c1ccc(Cl)cc1Cl [Compound 5, 1-(2,4-Dichlorophenyl)-3-(2-fluorophenyl)-1H-pyrazol-5-ol]	38200	2.11 × 10^5	74 ± 7	27 ± 4	promoted the dimerization of PD-L1 in a dose-dependent manner	229	slightly improved	slightly improved	–	–	9.74 10^10 M^−1 s^−1	23	–	43 ± 9	2.6

Continued, in another order:

EC50 [3] [nM]	HRMS intensity of remaining 4-HNE [4]	IC50 [5] [nM]	Kd [6] [nM]	Promotion of PD-L1 dimerization [7]	melting point [°C]	Solubility compared to compound 3 (Solubility)	Microsomal stability compared to compound 3 [8]	Compound	IC50 (CTLL-2 cells) [nM]	Binding to PD-L1 [1]	DMPO kr [2]	DMPO kr/ka [2]	Reactivation of CTLL-2 cell proliferation (CTLL-2 cells; CTLL-2 cells with rhPD-L1)	IC50 (CTLL-2 cells; Mus musculus, CTLL-2, 72 h) [nM]	kr value reduced by a factor compared to reference product 1 ([2]; DMPO assay)
40900	1.01 × 10^5	12 ± 5	19 ± 3	inactive	160	–	–	CCC1=NN(c2ccc(Cl)cc2Cl)C(=O)C1 [Compound 4, 1-(2,4-dichlorophenyl)-3-ethyl-1H-pyrazol-5(4H)-one]	–	–	4.40 10^10 M^−1 s^−1	10	inactive	–	–
–	–	47 ± 11	–	–	–	–	–	atezolizumab	–	–	–	–	–	–	–
